Literature values, collected in paper PMC8339258 (Frontiers in Pharmacology, 2021).

t1/2 (comparison in discussion, ref not given): > 100 h
terminal half-life (ref Hüttner et al., 2008, Heise et al., 2009, Blech al., 2010, Sarashina et al.): 142 h
Structure (SMILES): CC#CCn1c(N2CCC[C@@H](N)C2)nc2c1c(=O)n(Cc1nc(C)c3ccccc3n1)c(=O)n2C [linagliptin, (R)-8-(3-Amino-piperidin-1-yl)-7-but-2-ynyl-3-methyl-1-(4-methyl-quinazolin-2-ylmethyl)-3,7-dihydro-purine-2,6-dione]
